Molecules are shown by their SMILES.

T1 sequence (O00329 whole entry): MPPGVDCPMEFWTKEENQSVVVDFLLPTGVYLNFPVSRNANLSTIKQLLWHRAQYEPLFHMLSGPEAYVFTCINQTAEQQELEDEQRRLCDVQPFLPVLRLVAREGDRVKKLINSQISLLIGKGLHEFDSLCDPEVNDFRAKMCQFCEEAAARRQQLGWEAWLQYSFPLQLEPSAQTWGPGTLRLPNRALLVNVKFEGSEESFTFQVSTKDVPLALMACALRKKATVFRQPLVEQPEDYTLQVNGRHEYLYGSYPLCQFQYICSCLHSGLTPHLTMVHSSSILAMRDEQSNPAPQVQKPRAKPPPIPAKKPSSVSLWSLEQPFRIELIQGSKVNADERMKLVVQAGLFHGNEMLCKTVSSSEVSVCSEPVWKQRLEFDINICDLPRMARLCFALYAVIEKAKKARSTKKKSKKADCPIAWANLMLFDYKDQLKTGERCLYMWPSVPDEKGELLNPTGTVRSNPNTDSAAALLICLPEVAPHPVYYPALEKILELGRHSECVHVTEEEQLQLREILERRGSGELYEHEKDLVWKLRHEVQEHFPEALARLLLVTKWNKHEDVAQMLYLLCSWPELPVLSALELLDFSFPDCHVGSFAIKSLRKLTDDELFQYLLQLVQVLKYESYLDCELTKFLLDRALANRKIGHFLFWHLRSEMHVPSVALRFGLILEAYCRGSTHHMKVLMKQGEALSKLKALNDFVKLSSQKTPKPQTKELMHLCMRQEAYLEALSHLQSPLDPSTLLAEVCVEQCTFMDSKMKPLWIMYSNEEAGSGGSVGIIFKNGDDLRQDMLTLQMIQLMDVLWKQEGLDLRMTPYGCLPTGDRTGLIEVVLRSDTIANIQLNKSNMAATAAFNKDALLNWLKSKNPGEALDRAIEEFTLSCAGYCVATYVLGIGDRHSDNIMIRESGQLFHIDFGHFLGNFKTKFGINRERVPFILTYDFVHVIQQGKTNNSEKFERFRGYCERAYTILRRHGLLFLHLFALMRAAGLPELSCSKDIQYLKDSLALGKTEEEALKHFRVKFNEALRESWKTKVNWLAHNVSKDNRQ
T1 sequence (P27986 whole entry partner): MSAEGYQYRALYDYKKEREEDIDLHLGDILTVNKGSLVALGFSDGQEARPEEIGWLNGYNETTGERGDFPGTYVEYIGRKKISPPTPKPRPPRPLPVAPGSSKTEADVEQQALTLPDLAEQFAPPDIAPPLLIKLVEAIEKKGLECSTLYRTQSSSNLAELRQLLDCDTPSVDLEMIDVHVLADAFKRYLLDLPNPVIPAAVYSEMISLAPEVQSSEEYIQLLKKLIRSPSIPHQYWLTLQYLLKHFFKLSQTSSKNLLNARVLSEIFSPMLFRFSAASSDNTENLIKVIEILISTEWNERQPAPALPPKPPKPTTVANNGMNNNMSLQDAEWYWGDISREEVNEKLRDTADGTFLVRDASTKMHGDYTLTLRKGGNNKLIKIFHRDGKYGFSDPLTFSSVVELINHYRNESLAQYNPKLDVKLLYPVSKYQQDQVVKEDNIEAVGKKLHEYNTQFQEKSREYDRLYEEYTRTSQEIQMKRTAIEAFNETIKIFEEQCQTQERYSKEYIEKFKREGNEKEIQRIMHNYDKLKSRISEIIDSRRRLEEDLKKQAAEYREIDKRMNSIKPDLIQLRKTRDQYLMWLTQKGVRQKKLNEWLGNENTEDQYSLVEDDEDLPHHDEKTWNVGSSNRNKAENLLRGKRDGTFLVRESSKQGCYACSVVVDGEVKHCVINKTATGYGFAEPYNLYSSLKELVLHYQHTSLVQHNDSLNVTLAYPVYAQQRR

The assay addresses T1, PI3Kδ (Homo sapiens, UniProt O00329).
T1 construct: Full length p110 subunits of PI3k α, β and δ, N-terminally labeled with polyHis tag; polyHis (N); made in house; host or cells: Sf9 insect cells (baculovirus)
The assay can be described thus: PI3Kδ Alphascreen assay. It is filed as biochemical. In general terms: In Alpha technology, singlet oxygen from a donor bead excites a nearby acceptor bead.
With `CCNC(=O)N1CCN(c2nc3cc(F)cc(F)c3c(Nc3cncc(N4CCOCC4)c3)c2C)CC1` [4-(5,7-difluoro-3-methyl-4-((5-(4-morpholinyl)-3-pyridinyl)-amino)-2-quinolinyl)-N-ethyl-1-piperazinecarboxamide], the Ki came out at 24.8 nM. As for `CNC(=O)N1CCN(c2nc3cc(F)cc(F)c3c(Nc3cncc(N4CCOCC4)c3)c2C)CC1` [4-(5,7-difluoro-3-methyl-4-((5-(4-morpholinyl)-3-pyridinyl)-amino)-2-quinolinyl)-N-methyl-1-piperazinecarboxamide], the figure is 16.5 nM; as for `Cc1c(-c2ccccn2)nc2c(C#N)cccc2c1Nc1cc(N2CCOCC2)cnc1N1CCOCC1` [4-((2,5-di-4-morpholinyl-3-pyridinyl)amino)-3-methyl-2-(2-pyridinyl)-8-quinolinecarbonitrile], 54.4 nM. In the case of `Cc1c(-c2ccccn2)nc2cc(F)cc(F)c2c1Nc1ccc(C#N)c(N2CCOCC2)c1` [4-((5,7-difluoro-3-methyl-2-(2-pyridinyl)-4-quinolinyl)amino)-2-(4-morpholinyl)benzonitrile] it was 484 nM; in that of `COc1cncc(-c2cc(C#N)c(N3CCOCC3)cc2Nc2c(C)c(-c3ccccn3)nc3cc(F)cc(F)c23)c1` [4-((5,7-difluoro-3-methyl-2-(2-pyridinyl)-4-quinolinyl)amino)-5-(5-methoxy-3-pyridinyl)-2-(4-morpholinyl)benzonitrile], 7.87 nM; in that of `COc1cncc(-c2ncc(N3CCOCC3)cc2Nc2c(C)c(-c3cc(C)ccn3)nc3c(C#N)cccc23)c1` [4-((5′-methoxy-5-(4-morpholinyl)-2,3′-bipyridin-3-yl)amino)-3-methyl-2-(4-methyl-2-pyridinyl)-8-quinolinecarbonitrile], 233 nM.

With `COc1cc(-c2nc3cc(F)cc(F)c3c(Nc3cncc(N4CCOCC4)c3)c2C)ccn1` [5,7-difluoro-2-(2-methoxy-4-pyridinyl)-3-methyl-N-(5-(4-morpholinyl)-3-pyridinyl)-4-quinolinamine], the inhibition constant (Ki) came out at 150 nM. Compound `Cc1c(N2CCN(C(=O)c3ncc[nH]3)CC2)nc2cc(F)cc(F)c2c1Nc1cncc(N2CCOCC2)c1` [5,7-difluoro-2-(4-(1H-imidazol-2-ylcarbonyl)-1-piperazinyl)-3-methyl-N-(5-(4-morpholinyl)-3-pyridinyl)-4-quinolinamine] returned a Ki of 54.4 nM. In the case of `Cc1c(N2CCN(S(=O)(=O)c3ccccc3F)CC2)nc2cc(F)cc(F)c2c1Nc1cncc(N2CCOCC2)c1` [5,7-difluoro-2-(4-((2-fluorophenyl)sulfonyl)-1-piperazinyl)-3-methyl-N-(5-(4-morpholinyl)-3-pyridinyl)-4-quinolinamine] it was 66.4 nM. In the case of `Cc1c(N2CCN(S(=O)(=O)c3cccc(F)c3)CC2)nc2cc(F)cc(F)c2c1Nc1cncc(N2CCOCC2)c1` [5,7-difluoro-2-(4-((3-fluorophenyl)sulfonyl)-1-piperazinyl)-3-methyl-N-(5-(4-morpholinyl)-3-pyridinyl)-4-quinolinamine] it was 61.1 nM. Compound `Cc1c(-c2cc(F)ccc2S(C)(=O)=O)nc2cc(F)cc(F)c2c1Nc1cncc(N2CCOCC2)c1` [5,7-difluoro-2-(5-fluoro-2-(methylsulfonyl)phenyl)-3-methyl-N-(5-(4-morpholinyl)-3-pyridinyl)-4-quinolinamine] yielded a Ki of 2.91 nM. In the case of `COc1cncc(-c2nc3cc(F)cc(F)c3c(Nc3cncc(N4CCOCC4)c3)c2C)c1` [5,7-difluoro-2-(5-methoxy-3-pyridinyl)-3-methyl-N-(5-(4-morpholinyl)-3-pyridinyl)-4-quinolinamine] it was 37.4 nM; in that of `Cc1c(-c2ccccc2[S@+](C)[O-])nc2cc(F)cc(F)c2c1Nc1cncc(N2CCOCC2)c1` [5,7-difluoro-3-methyl-2-(2-((S)-methylsulfinyl)phenyl)-N-(5-(4-morpholinyl)-3-pyridinyl)-4-quinolinamine], 3.89 nM; in that of `Cc1c(-c2cc(OC(F)(F)F)ccc2S(C)(=O)=O)nc2cc(F)cc(F)c2c1Nc1cncc(N2CCOCC2)c1` [5,7-difluoro-3-methyl-2-(2-(methylsulfonyl)-5-(trifluoromethoxy)phenyl)-N-(5-(4-morpholinyl)-3-pyridinyl)-4-quinolinamine], 4.18 nM. `Cc1c(-c2ccccc2S(C)(=O)=O)nc2cc(F)cc(F)c2c1Nc1cncc(N2CCOCC2)c1` [5,7-difluoro-3-methyl-2-(2-(methylsulfonyl)phenyl)-N-(5-(4-morpholinyl)-3-pyridinyl)-4-quinolinamine] gave a Ki of 3.24 nM. In the case of `Cc1c(-c2ccccn2)nc2cc(F)cc(F)c2c1Nc1cncc(C2CCOCC2)c1` [5,7-difluoro-3-methyl-2-(2-pyridinyl)-N-(5-(tetrahydro-2H-pyran-4-yl)-3-pyridinyl)-4-quinolinamine] it was 209 nM; in that of `Cc1c(N2CCN(C(C)C)CC2)nc2cc(F)cc(F)c2c1Nc1cncc(N2CCOCC2)c1` [5,7-difluoro-3-methyl-2-(4-(1-methylethyl)-1-piperazinyl)-N-(5-(4-morpholinyl)-3-pyridinyl)-4-quinolinamine], 11.3 nM; in that of `Cc1c(N2CCN(C(=O)C(C)C)CC2)nc2cc(F)cc(F)c2c1Nc1cncc(N2CCOCC2)c1` [5,7-difluoro-3-methyl-2-(4-(2-methylpropanoyl)-1-piperazinyl)-N-(5-(4-morpholinyl)-3-pyridinyl)-4-quinolinamine], 33.3 nM. In the case of `Cc1c(N2CCN(S(=O)(=O)C(C)C)CC2)nc2cc(F)cc(F)c2c1Nc1cncc(N2CCOCC2)c1` [5,7-difluoro-3-methyl-2-(4-((1-methylethyl)sulfonyl)-1-piperazinyl)-N-(5-(4-morpholinyl)-3-pyridinyl)-4-quinolinamine] it was 53.4 nM.

Regarding `Cc1c(N2CCN(S(=O)(=O)CC(C)C)CC2)nc2cc(F)cc(F)c2c1Nc1cncc(N2CCOCC2)c1` [5,7-difluoro-3-methyl-2-(4-((2-methylpropyl)sulfonyl)-1-piperazinyl)-N-(5-(4-morpholinyl)-3-pyridinyl)-4-quinolinamine], affinity was put at a Ki of 71.3 nM. In the case of `Cc1ccc(C(=O)N2CCN(c3nc4cc(F)cc(F)c4c(Nc4cncc(N5CCOCC5)c4)c3C)CC2)o1` [5,7-difluoro-3-methyl-2-(4-((5-methyl-2-furanyl)carbonyl)-1-piperazinyl)-N-(5-(4-morpholinyl)-3-pyridinyl)-4-quinolinamine] it was 78.2 nM; in that of `Cc1ccc(C(=O)N2CCN(c3nc4cc(F)cc(F)c4c(Nc4cncc(N5CCOCC5)c4)c3C)CC2)cn1` [5,7-difluoro-3-methyl-2-(4-((6-methyl-3-pyridinyl)carbonyl)-1-piperazinyl)-N-(5-(4-morpholinyl)-3-pyridinyl)-4-quinolinamine], 180 nM; in that of `Cc1c(N2CCN(S(C)(=O)=O)CC2)nc2cc(F)cc(F)c2c1Nc1cncc(N2CCOCC2)c1` [5,7-difluoro-3-methyl-2-(4-(methylsulfonyl)-1-piperazinyl)-N-(5-(4-morpholinyl)-3-pyridinyl)-4-quinolinamine], 45.5 nM. `Cc1c(N2CCN(C)CC2)nc2cc(F)cc(F)c2c1Nc1cncc(N2CCOCC2)c1` [5,7-difluoro-3-methyl-2-(4-methyl-1-piperazinyl)-N-(5-(4-morpholinyl)-3-pyridinyl)-4-quinolinamine] returned a Ki of 35.2 nM.

In turn, `Cc1ccnc(-c2nc3cc(F)cc(F)c3c(Nc3cc(N4CCOCC4)ccc3S(C)(=O)=O)c2C)c1` [5,7-difluoro-3-methyl-2-(4-methyl-2-pyridinyl)-N-(2-(methylsulfonyl)-5-(4-morpholinyl)phenyl)-4-quinolinamine] registered a Ki of 0.821 nM. As for `Cc1ccnc(-c2nc3cc(F)cc(F)c3c(Nc3cncc(N4CCOCC4)c3)c2C)c1` [5,7-difluoro-3-methyl-2-(4-methyl-2-pyridinyl)-N-(5-(4-morpholinyl)-3-pyridinyl)-4-quinolinamine], the figure is 19.2 nM. In turn, `Cc1c(N2CCOCC2)nc2cc(F)cc(F)c2c1Nc1cncc(N2CCOCC2)c1` [5,7-difluoro-3-methyl-2-(4-morpholinyl)-N-(5-(4-morpholinyl)-3-pyridinyl)-4-quinolinamine] came in with an inhibitory constant (Ki) of 55.7 nM. For `Cc1ccc(S(C)(=O)=O)c(-c2nc3cc(F)cc(F)c3c(Nc3cncc(N4CCOCC4)c3)c2C)c1` [5,7-difluoro-3-methyl-2-(5-methyl-2-(methylsulfonyl)phenyl)-N-(5-(4-morpholinyl)-3-pyridinyl)-4-quinolinamine], affinity was put at a Ki of 1.35 nM. With `Cc1ccc(-c2nc3cc(F)cc(F)c3c(Nc3cncc(N4CCOCC4)c3)c2C)nc1` [5,7-difluoro-3-methyl-2-(5-methyl-2-pyridinyl)-N-(5-(4-morpholinyl)-3-pyridinyl)-4-quinolinamine], the affinity corresponds to a Ki of 19.1 nM. Turning to `Cc1ccc(-c2nc3cc(F)cc(F)c3c(Nc3cncc(N4CCOCC4)c3)c2C)cn1` [5,7-difluoro-3-methyl-2-(6-methyl-3-pyridinyl)-N-(5-(4-morpholinyl)-3-pyridinyl)-4-quinolinamine], the affinity corresponds to a Ki of 19.1 nM.

For `Cc1c(N2CCNC[C@H]2C)nc2cc(F)cc(F)c2c1Nc1cncc(N2CCOCC2)c1` [5,7-difluoro-3-methyl-2-((2R)-2-methyl-1-piperazinyl)-N-(5-(4-morpholinyl)-3-pyridinyl)-4-quinolinamine], the affinity corresponds to a Ki of 15.9 nM. In turn, `Cc1c(N2CCNC[C@@H]2C)nc2cc(F)cc(F)c2c1Nc1cncc(N2CCOCC2)c1` [5,7-difluoro-3-methyl-2-((2S)-2-methyl-1-piperazinyl)-N-(5-(4-morpholinyl)-3-pyridinyl)-4-quinolinamine] returned a Ki of 78.1 nM. In turn, `Cc1c(N2CCN[C@H](C)C2)nc2cc(F)cc(F)c2c1Nc1cncc(N2CCOCC2)c1` [5,7-difluoro-3-methyl-2-((3R)-3-methyl-1-piperazinyl)-N-(5-(4-morpholinyl)-3-pyridinyl)-4-quinolinamine] returned a Ki of 44.3 nM. Regarding `Cc1c(N2CCN(S(C)(=O)=O)[C@H](C)C2)nc2cc(F)cc(F)c2c1Nc1cncc(N2CCOCC2)c1` [5,7-difluoro-3-methyl-2-((3R)-3-methyl-4-(methylsulfonyl)-1-piperazinyl)-N-(5-(4-morpholinyl)-3-pyridinyl)-4-quinolinamine], the affinity corresponds to a Ki of 244 nM.

A word on the Ki: it is the dissociation constant of the complex between target and ligand, obtained from inhibition or displacement. A higher Ki goes with lower affinity.

Values taken from patent US8940724B2, “Quinoline derivitives and their uses” (Amgen Inc., priority 2009, dated 2015).
